Bridge positions count the residues as written; N and C are the ends. Square brackets hold non-standard residues; d marks the D form. Peptide text beside a SMILES is read from it. R8 = C=CCCCCCC[C@@](C)(N)C(=O)O; S5 = C=CCCC[C@](C)(N)C(=O)O; Nle = CCCC[C@H](N)C(=O)O
Legend:
E. coli = format: cell-based, Escherichia coli
Outline: (§1)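 Microdilution MIC test in polyanion-depleted MHB, with a final inoculum of 5×10^5 CFU/ml and 20-24 h incubation at 37° C.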

B. cereus = format: cell-based, Bacillus cereus
Outline: as §1

P. aeruginosa = format: cell-based, Pseudomonas aeruginosa
Outline: as §1

human red blood cells = format: cell-based; conditions: red cells of human, 1 h, 25
Outline: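 Hemolysis expressed as absorbance of released hemoglobin (570 nm) normalized between untreated and 1% Triton-X100 controls, with MHC taken as peptide concentration giving under 1% release. Peptide dilutions were exposed for 1 h at 37° C to a 1% (v/v) suspension of washed human red cells in PBS.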

S. aureus = format: cell-based, Staphylococcus aureus
Outline: as §1

Row | MIC E. coli (E. coli) [µg/mL] | MIC B. cereus (B. cereus) [µg/mL] | MIC P. aeruginosa (P. aeruginosa) [µg/mL] | MIC S. aureus (S. aureus) [µg/mL] | SMILES | % Hemolysis at 25 μg/ml (human red blood cells) [%]
1 | 1.6 | 6.2 | 3.1 | 25 | CCCC[C@H](NC(=O)[C@@H](NC(=O)[C@H](CCC(=O)O)NC(=O)CNC(=O)[C@@H](NC(=O)[C@H](Cc1ccccc1)NC(=O)[C@H](C)NC(=O)[C@H](CCCCN)NC(=O)CNC(=O)[C@]1(C)CCCC=CCCCCCC[C@@](C)(NC(=O)[C@H](CCCCN)NC(=O)CNC(=O)[C@@H](NC(=O)CN)[C@@H](C)CC)C(=O)N[C@@H](CC(C)C)C(=O)N[C@@H](Cc2c[nH]cn2)C(=O)N[C@@H](CO)C(=O)N[C@@H](C)C(=O)N[C@@H](CCCCN)C(=O)N[C@@H](CCCCN)C(=O)N1)C(C)C)[C@@H](C)CC)C(=O)N[C@@H](CC(N)=O)C(=O)N[C@@H](CO)C(N)=O [Mag(i + 7)4] (H-GIGK[R8]LHSAKK[S5]GKAFVGEI[Nle]NS-NH2; staple 5-12 (inferred); N-terminus and C-terminus assumed) | 42.6
2 | 6.2 | 12.5 | 25 | 6.2 | CCCC[C@H](NC(=O)[C@@H](NC(=O)[C@H](CCC(=O)O)NC(=O)CNC(=O)[C@@H](NC(=O)[C@H](Cc1ccccc1)NC(=O)[C@H](C)NC(=O)[C@H](CCCCN)NC(=O)CNC(=O)[C@H](Cc1ccccc1)NC(=O)[C@H](CCCCN)NC(=O)[C@H](CCCCN)NC(=O)[C@H](C)NC(=O)[C@]1(C)CCCC=CCCC[C@](C)(NC(=O)CNC(=O)[C@@H](NC(=O)CN)[C@@H](C)CC)C(=O)N[C@@H](Cc2ccccc2)C(=O)N[C@@H](CC(C)C)C(=O)N[C@@H](Cc2c[nH]cn2)C(=O)N1)C(C)C)[C@@H](C)CC)C(=O)N[C@@H](CC(N)=O)C(=O)N[C@@H](CO)C(N)=O [Mag(i + 4)3] (H-GIG[S5]FLH[S5]AKKFGKAFVGEI[Nle]NS-NH2; staple 4-8) | 41.6
3 | 12.5 | >50 | >50 | >50 | CCCC[C@H](NC(=O)[C@]1(C)CCCC=CCCC[C@](C)(NC(=O)[C@H](C)NC(=O)[C@H](CCCCN)NC(=O)CNC(=O)[C@H](Cc2ccccc2)NC(=O)[C@H](CCCCN)NC(=O)[C@H](CCCCN)NC(=O)[C@H](C)NC(=O)[C@H](CO)NC(=O)[C@H](Cc2c[nH]cn2)NC(=O)[C@H](CC(C)C)NC(=O)[C@H](Cc2ccccc2)NC(=O)[C@H](CCCCN)NC(=O)CNC(=O)[C@H](CCC(=O)O)NC(=O)CN)C(=O)N[C@@H](C(C)C)C(=O)NCC(=O)N[C@@H](CCC(=O)O)C(=O)N1)C(=O)N[C@@H](CC(N)=O)C(=O)N[C@@H](CO)C(N)=O [Mag(i + 4)15(I2E), GEGKFLHSAKKFGKAXVGEXBNS] (H-GEGKFLHSAKKFGKA[S5]VGE[S5][Nle]NS-NH2; staple 16-20) | 3.6
4 | 1.6 | 3.1 | 6.2 | 6.2 | CCCC[C@H](NC(=O)[C@]1(C)CCCC=CCCC[C@](C)(NC(=O)[C@H](C)NC(=O)[C@H](CCCCN)NC(=O)CNC(=O)[C@H](Cc2ccccc2)NC(=O)[C@H](CCCCN)NC(=O)[C@H](CCCCN)NC(=O)[C@H](C)NC(=O)[C@H](CO)NC(=O)[C@H](Cc2c[nH]cn2)NC(=O)[C@H](CC(C)C)NC(=O)[C@H](Cc2ccccc2)NC(=O)[C@H](CCCCN)NC(=O)CNC(=O)[C@@H](NC(=O)CN)[C@@H](C)CC)C(=O)N[C@@H](C(C)C)C(=O)N[C@@H](Cc2c[nH]cn2)C(=O)N[C@@H](CCC(=O)O)C(=O)N1)C(=O)N[C@@H](CC(N)=O)C(=O)N[C@@H](CO)C(N)=O [Mag(i + 4)15(G18H), GIGKFLHSAKKFGKAXVHEXBNS] (H-GIGKFLHSAKKFGKA[S5]VHE[S5][Nle]NS-NH2; staple 16-20) | 6.8
